The values below come from publication PMC12169663, “Deciphering the Tumor Uptake of Heterobivalent (SST2/Albumin) [^64Cu]Cu-NODAGA-cLAB-TATEs” (Journal of Medicinal Chemistry, 2025).

*1 amine or outer side, *2 acyl side, *3 side chain or, on linkers, in order; H or OH if unused. Where a SMILES comes first, the peptide text is derived from it. Bridges are numbered along the chain shown (N, C = ends). [ ]: non-standard residue; d: D form. The star is where a group is joined. Ala(1-(4-CO-Ph)triazol-4-yl) = O=C([C@H](Cc1cn(-c2ccc(C(=O)[*:3])cc2)nn1)N[*:1])[*:2]; X1 = O=C(O)CN1CCN(CC(=O)O)CCN([C@H](CCC(=O)*)C(=O)O)CC1; X2 = Cc1ccc(CCCC(=O)NCCCC[C@H](N*)C(N)=O)cc1; AEEA = NCCOCCOCC(=O)O

Usually Kd stands for the constant that tells how readily two partners part at equilibrium.

For one data set, the system named is MPC cells. In words: Cell binding and uptake (internalization) in MPC cells. Type of data set: cell-based, mouse. The method, then: Furthermore, the receptor-mediated endocytosis (referred to as internalization) of the novel compounds was assessed. The values for the internalized fraction (or “acid wash” resistant fraction) were >50% (Figure S5), which might indicate a similar pharmacological behavior of these ligands upon binding to SST2 as the parent ligand TATE.
Cell binding and uptake were measured as previously described. , MPC cells were seeded into collagen-coated 24-well microplates and cultivated for 4 days. All washing steps were performed using PBS containing 0.9 mM CaCl2 and 0.5 mM MgCl2. Total radioligand uptake was measured after incubation with the radioligand (A m = 30 GBq/μmol) at a final concentration of 20 nM in RPMI 1640 medium with GlutaMAX supplement (Thermo Fisher Scientific) for 1 h at 37 and 4 °C. Nonspecific binding was determined in the presence of 20 μM Acetyl-TATE. The uptake fraction was measured after acid wash of cell surface-bound radioligand with wash buffer containing 0.05 M glycine, pH 2.8, for 5 min. The activity of cell homogenates was measured using the γ counter Wizard (PerkinElmer). The protein content of cell homogenates was measured as described above.
Figure S5: Cell binding data
Data shown in A and B are mean values (±SD) of one experiment (NODAGA-cLAB(5/6)- TATE and NODAGA-cLAB4-scrTATE) or 3 experiments (±SEM, DOTA-EB-TATE), which were performed in sextuplicate. In C, the amount of specific “internalized” (acid resistant) radioligand (red bars in A, mean values) is expressed as percentage of specific total -bound radioligand (blue bars in A, mean values). The difference to 100% was assigned to “surface - bound” radioligand. For a better overview, the compound names were abbreviated. […]
specific binding of radioligand
Incubation at 37°C for 1 h
(% dose/mg of protein) Washing with
Incubation at 4°C for 1 h […]
(1 picture or pasted object on this page, not shown here)

In another data set the target is HSA (Homo sapiens, UniProt P02768). In words: Estimation of Kd[HSA] from structure-activity relationships of the isolated cLABs. The source says:
Table S1: Comparison of estimated and determined Kd[HSA] values for the 64Cu-labeled TATE derivatives bearing an albumin […]
predicted determinedi predict./determ. cLAB1 R1-pentanoyl-D-Lys(IPB)-OH 8.0a 3.1j 2.6 cLAB2 R1-benzoyl-L-Lys(IPB)-OH 0.36b 1.8j 0.2 cLAB3 R1-benzoyl-L-Lys(IPB)-NH2 7.9c 9.2j 0.9 […]
cLAB4-scrTATE R1-benzoyl-L-Lys(MPB)-NH2 66d 42 1.6 a Represents the Kd value of the albumin binder (R)-1e (5-N3-pentanoyl-D-Lys(IPB)-OH).1 b Represents the Kd value of the albumin binder (S)-1f (4-N3-benzoyl-L-Lys(IPB)-OH).1 c Calculated using the Kd value of the respective carboxylic acid ((S)-1f) and a factor of 22, which is the factor between Acetyl-L-Lys(IPB)-OH ((S)-1c) an Acetyl-L-Lys(IPB)-NH2 ((S)-2a).1 […]
f Calculated using the Kd value of the respective carboxylic acid ((S)-1f) and the factors of 22 (carboxylic acid → carboxamide) and 2.2 (L → D configuration, factor between (S)-1c and (R)-1c).1 g Represents the Kd value determined for the non-radioactive compound using the fluorescence-based competition […]
h Compound names were abbreviated. i Determined using the radiometric ultrafiltration assay described in the main article. j Previously determined by us.1

The target of data set [1] is human serum albumin (HSA) (Homo sapiens, UniProt P02768). In words: Radiometric ultrafiltration assay for binding to HSA.
Procedure: The ultrafiltration assay used to quantify the binding of the ^64Cu-labeled peptides to HSA was performed as previously described for NODAGA-cLAB-TATEs. , Briefly, a constant activity amount of the radioligands (10–15 MBq) were mixed with different HSA concentrations (200 nM–1.4 mM). Aliquots were loaded into the ultrafiltration devices (4104 centrifugal filter units by Millipore; 30 000 Da nominal molecular weight limit, methylcellulose micropartition membranes) and centrifuged. After centrifugation, aliquots from the top and bottom fractions were measured in a γ-counter (PerkinElmer, Wizard^2 2480 automatic gamma counter). The retained fraction was calculated as a quotient of these measurements. The dissociation constant, K d, was calculated using the Morrison equation.
Data set [2] is described as follows: Small-animal PET imaging in subcutaneous MPC tumor allograft model. The following applies: female, NMRI-nu/nu (Rj:NMRI-Foxn1nu/nu), mouse, iv, total radioactivity.
Procedure: (§1) The biodistribution of [ ^ 64 Cu]­Cu-NODAGA-cLAB­(5/6)-TATE, [ ^ 64 Cu]­Cu-NODAGA-cLAB4- scr TATE, and [ ^ 64 Cu]­Cu-DOTA-EB-TATE was assessed in a subcutaneous MPC tumor allograft model via small-animal PET imaging (Figure A–D). The time-activity curves (TACs) for tumor, kidneys, and heart are shown in Figure A–D (for TACs of muscle and liver, see Figure S6) and the calculated areas under curves (AUC0–48h) and tumor-to-tissue ratios are graphically summarized in Figure E,F, respectively.
(§2) (A–D) Time-activity curves (SUV, decay-corrected, as a function of time up to 48 h) obtained by PET acquisition are depicted (0–2 h in dynamic mode and time points 5, 24, and 48 h p.i.; the x-axes are segmented accordingly). Data shown are mean values (±SD) of a group of MPC tumor-bearing NMRI-nu/nu mice (n = 2, but for cLAB6-TATE n = 4). […] (E) Calculated AUC0–48h values. Data shown are mean values (±SD). (F) Tumor/organ ratios based in the AUC0–48h values.
(§3) A number of 4 × 10^6 MPC cells were resuspended in 40 μL of Dulbecco’s phosphate-buffered saline and injected subcutaneously into the shoulder of 7–10-week-old female nude mice (Rj:NMRI-Foxn1^nu/nu, Janvier Laboratories, Le Genest-Saint-Isle, France). General anesthesia was induced and maintained with inhalation of 10% (v/v) desflurane in 30% oxygen/air (v/v). Tumor growth was monitored using caliper measurements. Animals were sacrificed using CO2 inhalation and cervical dislocation. When diameters of MPC tumors reached 8 ± 3 mm (volumes of 65–282 mm^3), small-animal positron emission tomography (PET) was performed using the nanoScan PET/CT (Mediso Medical Imaging Systems, Budapest, Hungary) and Si78 PET/CT (BRUKER, Billerica, MA) instruments. Scanners were cross-calibrated using a syringe source containing 10 MBq of [^64Cu]­CuCl2 diluted in 2 mL of 0.01 M HCl. Each mouse (n = 2) received between 7 and 10 MBq of the respective radioligand (A m = 40 GBq/μmoL) delivered in 0.154 M NaCl via intravenous injection through a tail vein catheter within the initial 30 s after scan start. […] Standardized uptake values (SUV = [MBq detected activity/mL tissue]/[MBq injected activity/g body weight]) were determined in defined volumes of interest (VOIs) and reported as VOI-averaged SUVmean ± range [min–max]. Assuming a density of 1 g/mL for body tissues, the SUVs become dimensionless.
For data set [3], the system named is MPC tumor-bearing NMRI-nu/nu mice. The data set is described as above.
Procedure: as §1, §2, §3

Sequence of HSA (P02768 25-609): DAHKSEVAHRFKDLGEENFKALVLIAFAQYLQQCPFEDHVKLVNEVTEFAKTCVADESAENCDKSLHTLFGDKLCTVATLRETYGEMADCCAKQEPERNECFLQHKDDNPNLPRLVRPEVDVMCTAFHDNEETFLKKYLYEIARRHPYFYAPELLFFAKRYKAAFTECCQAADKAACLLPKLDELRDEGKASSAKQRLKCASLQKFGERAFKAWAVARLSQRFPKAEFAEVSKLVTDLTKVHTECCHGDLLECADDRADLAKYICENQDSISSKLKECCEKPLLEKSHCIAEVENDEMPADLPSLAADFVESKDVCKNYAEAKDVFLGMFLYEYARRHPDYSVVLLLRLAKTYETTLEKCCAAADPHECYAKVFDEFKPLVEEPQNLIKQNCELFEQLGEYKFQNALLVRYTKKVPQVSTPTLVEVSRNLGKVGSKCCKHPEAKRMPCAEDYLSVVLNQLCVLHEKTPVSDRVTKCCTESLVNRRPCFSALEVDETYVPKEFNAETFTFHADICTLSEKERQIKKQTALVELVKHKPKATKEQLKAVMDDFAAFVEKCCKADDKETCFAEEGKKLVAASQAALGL
Sequence of human serum albumin (HSA) (P02768 25-609): as above

For `Cc1ccc(CCCC(=O)NCCCC[C@H](NC(=O)c2ccc(-n3cc(C[C@H](NC(=O)CC[C@H](C(=O)O)N4CCN(CC(=O)O)CCN(CC(=O)O)CC4)C(=O)NCCOCCOCC(=O)N[C@@H](CCCCN)C(=O)N[C@H]4CSSC[C@@H](C(=O)N[C@H](C(=O)O)[C@@H](C)O)NC(=O)[C@@H](Cc5c[nH]c6ccccc56)NC(=O)[C@@H](Cc5ccccc5)NC(=O)[C@H]([C@@H](C)O)NC(=O)[C@H](Cc5ccc(O)cc5)NC4=O)nn3)cc2)C(N)=O)cc1` [[64Cu]Cu-NODAGA-cLAB4-scrTATE, metal not drawn] (X1-[Ala(1-(4-CO-Ph)triazol-4-yl)](X2)[AEEA]KCYT[dF][dW]CT-OH; disulfide 4-9), the “binding in the cell binding and uptake assay” value with MPC cells (MPC cells, 20 nM, 1 h) is “no binding at all”. For the same compound, in the data set with MPC cells (incubation at 4 °C for 1 h, washing with PBS pH 7.4, 20 nM), the “specific binding of radioligand” value is listed as 0.01 % dose/mg of protein. In addition, the “specific binding of radioligand” value in the data set with MPC cells (incubation at 4 °C for 1 h, washing with glycine buffer pH 2.8, 20 nM) is on record as 0.03 % dose/mg of protein. Further, in the data set on MPC cells (incubation at 37 °C for 1 h, washing with PBS pH 7.4 (total bound), 20 nM), the “specific binding of radioligand” value is recorded as 0.02 %dose/mg of protein. Further, the “specific binding of radioligand” value in the data set with MPC cells (incubation at 37 °C for 1 h, washing with glycine buffer pH 2.8 (acid resistant), 20 nM) is listed as 0.04 %dose/mg of protein. In addition, the “Ratio Kd predict./determ.” value at HSA was 1.6. Binding in data set [1] was put at a Kd of 42 µM. For the same compound, in data set [2] (muscle), the SUV at 24 h was found to be 0.04 SUV. The SUV at 24 h in data set [2] (tumor) was 0.49 SUV. The “integral tumor uptake relative to [64Cu]Cu-NODAGA-cLAB4-TATE” value in data set [3] (AUC0–48h) is given as “less than 10%”. Also, in data set [3] (PET, i.v., 7–10 MBq/animal), the AUC0-48h heart is reported as 41.09 SUVmean*h, the AUC0-48h kidney came to 59.26 SUVmean*h, the AUC0-48h liver is 25.84 SUVmean*h and the AUC0-48h tumor turned out to be 25 SUVmean*h. The compound further registered an AUC0-48h tumor in data set [3] (PET, i.v., 7–10 MBq/animal, listed as cLAB4-scrTATE) of 25.35 SUVmean*h. For the same compound, in data set [3] (mouse, in vivo), the “AUC0–48h muscle” value worked out at 5.5 SUVmean*h; the “integral tumor uptake, fold lower than [64Cu]Cu-NODAGA-TATE” value worked out at 6 fold; the “integral tumor uptake, fold lower than [64Cu]Cu-NODAGA-cLAB4-TATE” value is listed as 11 fold.
